Legend:
Conditions in all cases: interpreted according to CLSI M100 ED 30, confirmed by PCR ID/AST after 4 h incubation, 5E5 CFU/mL
E. faecium strain 18483 = test: PCR-based rapid ID/AST and CLSI susceptibility interpretation, E. faecium strain 18483; type: cell-based, Enterococcus faecium
Experimental: (§1) • a. Prepare antimicrobial (Abx) Plate ahead of time and store at […] until needed • i. Diluent—Cation Adjusted Mueller Hinton Broth (CAMHB) • ii. Final Vol—50 ul/well • iii. Remove from −80 C and let thaw at 30 min/Room Temp prior to use
(§2) • b. Overnight cultures in CAMHB—37 C/16-18 hrs/500 rpm • i. 10 ul glycerol stock+490 ul CAMHB in 2 mL 96-well Deep Well Plate • c. Normalize cultures to 1.00E+06 CFU/mL by Optical Density (OD) • d. Prepare Test Plate by adding 50 ul normalized test isolate to appropriate wells of Abx Plate as outlined
(§3) • e. Incubate Test Plate at 37 C/4 hrs/no shaking • f. Prepare PCR Reagents according to TABLE XXIX • g. Add 45 ul Master Mix to each well of a PCR Assay Plate • h. Following incubation, stamp 5 ul/well of Test Plate to PCR Assay Plate • i. Final Vol—50 ul/well • i. For Test Plate, continue incubating at 37 C/12-16 hrs/no shaking to determine reference method Minimum Inhibitory Concentration (MIC) • j. Load PCR Assay Plate to cobas z 480 instrument and run under conditions of TABLE XXX. • k. Following incubation read Test Plate for MIC and determine phenotypic Susceptible/Intermediate/Resistant interpretation. […]

E. faecium strain 18446 = test: PCR-based rapid ID/AST and CLSI susceptibility interpretation, E. faecium strain 18446; type: cell-based, Enterococcus faecium
Experimental: as §1, §2, §3

S. aureus strain 15509 = test: PCR-based rapid ID/AST and CLSI susceptibility interpretation, S. aureus strain 15509; type: cell-based, Staphylococcus aureus
Experimental: as §1, §2
(§4) • e. Incubate Test Plate at 37 C/4 hrs/no shaking • f. Prepare PCR Reagents according to TABLE XXIX • g. Add 45 ul Master Mix to each well of a PCR Assay Plate • h. Following incubation, stamp 5 ul/well of Test Plate to PCR Assay Plate • i. Final Vol—50 ul/well • i. For Test Plate, continue incubating at 37 C/12-16 hrs/no shaking to determine reference method Minimum Inhibitory Concentration (MIC) • j. Load PCR Assay Plate to cobas z 480 instrument and run under conditions of TABLE XXX. • k. Following incubation read Test Plate for MIC and determine phenotypic Susceptible/Intermediate/Resistant interpretation.
(§5) Rapid Identification and phenotypic antimicrobial susceptibility testing of Staphylococcus aureus utilizing three distinct target genes (gyrB, ddlA, tuf) and one class of antibacterial agent, cefoxitin (cephalosporin) was performed. […]

S. aureus strain 16405 = test: PCR-based rapid ID/AST and CLSI susceptibility interpretation, S. aureus strain 16405; type: cell-based, Staphylococcus aureus
Experimental: as §1, §2, §4, §5

[1] = system: K. pneumoniae strain 0143; test: PCR-based rapid ID/AST and CLSI susceptibility interpretation, K. pneumoniae strain 0143; type: cell-based, Klebsiella pneumoniae
Experimental: as §1, §2, §4
(§6) The primer/probe sets used were as follows. […]
(§7) The percentages on the Y-axis depicted as “Fold Change Abx level 1” were determined using the calculation 2^-(Abx_Level_1_Ct−Reference_Ct) or 2^-([…]Ct).

[2] = system: K. pneumoniae strain 16565; test: PCR-based rapid ID/AST and CLSI susceptibility interpretation, K. pneumoniae strain 16565; type: cell-based, Klebsiella pneumoniae
Experimental: as §1, §2, §4, §6, §7

[3] = system: P. aeruginosa strain 16657; test: PCR-based rapid ID/AST and CLSI susceptibility interpretation, P. aeruginosa strain 16657; type: cell-based, Pseudomonas aeruginosa
Experimental: as §1, §2, §4, §6

[4] = system: P. aeruginosa strain 17816; test: PCR-based rapid ID/AST and CLSI susceptibility interpretation, P. aeruginosa strain 17816; type: cell-based, Pseudomonas aeruginosa
Experimental: as §1, §2, §4, §6

[5] = system: A. baumannii strain 17694; test: PCR-based rapid ID/AST and CLSI susceptibility interpretation, A. baumannii strain 17694; type: cell-based, Acinetobacter baumannii
Experimental: as §1, §2, §4, §6

[6] = system: A. baumannii strain 16421; test: PCR-based rapid ID/AST and CLSI susceptibility interpretation, A. baumannii strain 16421; type: cell-based, Acinetobacter baumannii
Experimental: as §1, §2, §4, §6

Compound	antimicrobial susceptibility of the strain to the given antimicrobial (E. faecium strain 18483)	antimicrobial susceptibility of the strain to the given antimicrobial (E. faecium strain 18446)	antimicrobial susceptibility of the strain to the given antimicrobial (S. aureus strain 15509)	antimicrobial susceptibility of the strain to the given antimicrobial (S. aureus strain 16405)	antimicrobial susceptibility of the strain to the given antimicrobial [1]	antimicrobial susceptibility of the strain to the given antimicrobial [2]	antimicrobial susceptibility of the strain to the given antimicrobial [3]	antimicrobial susceptibility of the strain to the given antimicrobial [4]	antimicrobial susceptibility of the strain to the given antimicrobial [5]	antimicrobial susceptibility of the strain to the given antimicrobial [6]
CC1(C)S[C@@H]2[C@H](NC(=O)[C@H](N)c3ccccc3)C(=O)N2[C@H]1C(=O)O [ampicillin]	resistant	sensitive	–	–	–	–	–	–	–	–
CO[C@@]1(NC(=O)Cc2cccs2)C(=O)N2C(C(=O)O)=C(COC(N)=O)CS[C@@H]21 [cefoxitin]	–	–	resistant	sensitive	–	–	–	–	–	–
C[C@@H](O)[C@H]1C(=O)N2C(C(=O)O)=C(S[C@@H]3CN[C@H](C(=O)N(C)C)C3)[C@H](C)[C@H]12 [meropenem]	–	–	–	–	resistant	sensitive	resistant	sensitive	resistant	sensitive
CN[C@H](CC(C)C)C(=O)N[C@H]1C(=O)N[C@@H](CC(N)=O)C(=O)N[C@H]2C(=O)N[C@H]3C(=O)N[C@H](C(=O)N[C@H](C(=O)O)c4cc(O)cc(O)c4-c4cc3ccc4O)[C@H](O)c3ccc(c(Cl)c3)Oc3cc2cc(c3O[C@@H]2O[C@H](CO)[C@@H](O)[C@H](O)[C@H]2O[C@H]2C[C@](C)(N)[C@H](O)[C@H](C)O2)Oc2ccc(cc2Cl)[C@H]1O [vancomycin]	resistant	sensitive	–	–	–	–	–	–	–	–
gentamicin	–	–	–	–	resistant	sensitive	resistant	sensitive	resistant	sensitive

From patent US11981954B2, “Compositions and methods for rapid identification and phenotypic antimicrobial susceptibility testing of bacteria and fungi” (priority 2019, dated 2024)
